From patent publication US10907168B2, “Jasmonic acid pathway activator” (MEDICAGO INC., priority 2015, dated 2021)
“Also recorded” adds a separate entry of the source.

Tests used:
A. tumefaciens VirE1 = experiment: Real-time RT PCR of VirE1 transcripts in agroinfiltrated leaves; assay type: in vivo, Agrobacterium tumefaciens; conditions: 1 mM, seven days post-treatment
Description: (§1) mRNA transcripts for C5-1 and A. tumefaciens virulence proteins VirB1 and VirE1 were assayed by real-time RT PCR using an ABI PRISM 7500 Fast real-time PCR apparatus, system version 2.0.1 (Applied Biosystems, Carlsbad Calif., U.S.A.). Total RNA was extracted from two 1-cm^2 leaf discs collected on the third main stem leaf (Robert et al., 2013) using the Qiagen RNeasy plant mini kit (Qiagen), following the supplier's instructions. RNA samples were treated with DNase I (Roche Diagnostics) to remove contaminant DNA and assessed for quality and quantity using a Nanodrop® ND-1000 spectrophotometer (NanoDrop Technologies, Wilmington Del., USA). First-strand cDNA was synthesized from 500 ng of total RNA using 4 units of Omniscript reverse transcriptase (Qiagen) and 1 μM of oligo-dT (15) nucleotides (Roche). PCR reactions contained 10 μl of Fast SYBR Green PCR Master Mix (Applied Biosystems), 2 μl of cDNA template, and 2.5 μl each of appropriate forward and reverse primers at 625 nM final concentration (Table 1). A no-template mixture control was included in each 96-well plate. Amplification rounds consisted of a 20-s denaturation step at 95° C., followed by 40 two-step cycles of 3 s at 95° C. and 30 s at 60° C. […]

A. tumefaciens VirB1 = experiment: Real-time RT PCR of VirB1 transcripts in agroinfiltrated leaves; assay type: in vivo, Agrobacterium tumefaciens; conditions: 1 mM, seven days post-treatment, Student's t-test P<0.05
Description: as §1

N. benthamiana leaves = experiment: Leaf protein profile, Coomassie blue-stained SDS-PAGE and MS/MS identification; assay type: in vivo, Nicotiana benthamiana; conditions: uninfiltrated leaves; ~30-kDa, ~25-kDa and ~6-kDa mass ranges; seven days post-treatment
Description: Forty-two day-old N. benthamiana plants grown in greenhouse were used for the experiments. Each plant was sprayed evenly with 50 ml of 0.5 mM, 1 mM or 2 mM MeJA in water containing 0.1% (v/v) Triton X-100 (Sigma-Aldrich, Mississauga ON, Canada), or with 50 ml of 1 mM arachidonic acid (Girard et al., 2007) in the same solvent, and transferred for seven days in a Conviron growth chamber (Conviron, Winnipeg MB, Canada). Plants sprayed with 50 ml of 0.1% (v/v) Triton X-100 in water were used in parallel as negative controls to avoid confounding effects due to experimental conditions. […]
Whole leaf proteins were extracted from three 1-cm^2 leaf discs in 400 μl of ice-cold 50 mM Tris-HCl, pH 7.5, containing 150 mM NaCl, by disrupting the leaf samples with tungsten carbide beads (Qiagen, Mississauga ON, Canada) in a Mini-Beadbeater apparatus (BioSpec, Bartlesville Okla., USA). […] RuBisCO small subunit was detected using polyclonal IgG raised in rabbit against a synthetic small subunit peptide (Agrisera, Vännäs, Sweden) and alkaline phosphatase-conjugated goat anti-rabbit IgG as secondary antibodies (Sigma-Aldrich). RuBisCO large subunit was detected using polyclonal IgG raised in hen against a synthetic large subunit peptide (Agrisera) and alkaline phosphatase-conjugated goat anti-chicken IgG as secondary antibodies (Sigma-Aldrich). […]

Compound: CC/C=C\C[C@H]1C(=O)CC[C@@H]1CC(=O)OC [MeJA, methyl jasmonate]
- VirE1 transcription versus control leaves (A. tumefaciens VirE1): no positive effect
- VirB1 mRNA transcripts versus control leaves (A. tumefaciens VirB1): negatively altered; also recorded: significantly lower value
- up-regulation of proteins on Coomassie blue-stained gels (N. benthamiana leaves): up-regulation of several proteins
